According to patent US20240368120A1 (Terns Pharmaceuticals, Inc., priority 2023, published 2024):

Target: T1, human GLP-1R receptor (Homo sapiens, UniProt P43220)
T1 construct: expressed in transfected cells
Assay: GLP-1R low expression cell assay (cAMP TR-FRET, CHO-K1_hGLP-1Rlow_clone10 cells)
Assay type: cell-based
Details: for EC50: cAMP TR-FRET, 30 min at 25° C.; for Emax: maximum activation relative to control GLP-1 peptide agonist
How it was run: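 Readout is cAMP TR-FRET after 30 min compound stimulation at 25 °C of a low-GLP-1R-expressing CHO-K1 clone (1,000 cells/well), with 10-point 3-fold serial dilutions. Percent activation versus a control GLP-1 peptide, from duplicates, was Hill-fitted to give EC50.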

T1 sequence (P43220 24-463): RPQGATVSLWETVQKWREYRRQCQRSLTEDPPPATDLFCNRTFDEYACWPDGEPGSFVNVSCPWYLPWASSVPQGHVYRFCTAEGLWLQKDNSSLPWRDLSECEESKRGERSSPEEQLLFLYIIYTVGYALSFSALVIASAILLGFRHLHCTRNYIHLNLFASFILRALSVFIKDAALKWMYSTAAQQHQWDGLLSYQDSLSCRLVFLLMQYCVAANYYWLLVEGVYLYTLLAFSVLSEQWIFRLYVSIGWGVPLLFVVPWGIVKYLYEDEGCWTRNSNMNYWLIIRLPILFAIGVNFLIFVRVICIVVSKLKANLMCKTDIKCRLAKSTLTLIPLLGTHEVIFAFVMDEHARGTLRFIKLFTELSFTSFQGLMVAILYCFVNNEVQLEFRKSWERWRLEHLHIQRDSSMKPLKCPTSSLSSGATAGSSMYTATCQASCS

| EC50 [nM] | Emax [%] | SMILES |
| --- | --- | --- |
| 10 to 100 | > 85 | CCCOc1cc(C(=O)O)cc2c1nc(CN1CCC(c3cccc(OCc4ccc(C#N)cc4F)n3)CC1)n2C [Compound 319, 2-((4-(6-((4-Cyano-2-fluorobenzyl)oxy)pyridin-2-yl)piperidin-1-yl)methyl)-1-methyl-4-propoxy-1H-benzo[d]imidazole-6-carboxylic acid] |
| 100 to 1000 | > 85 | Cn1c(CN2CCC(c3cccc(OCc4ccc(Cl)cc4F)n3)CC2)nc2c(NCCF)cc(C(=O)O)cc21 [Compound 186, 2-((4-(6-((4-Chloro-2-fluorobenzyl)oxy)pyridin-2-yl)piperidin-1-yl)methyl)-4-((2-fluoroethyl)amino)-1-methyl-1H-benzo[d]imidazole-6-carboxylic acid] |
| 10 to 100 | > 85 | Cn1c(CN2CCC(c3cccc(OCc4ccc(OC(F)F)cc4F)n3)CC2)nc2c(OC(F)F)cc(C(=O)O)cc21 [Compound 221, 4-(Difluoromethoxy)-2-((4-(6-((4-(difluoromethoxy)-2-fluorobenzyl)oxy)pyridin-2-yl)piperidin-1-yl)methyl)-1-methyl-1H-benzo[d]imidazole-6-carboxylic acid] |
| 10 to 100 | > 85 | Cn1c(CN2CCC(c3ncc(F)c(OCc4ccc(Cl)cc4F)n3)CC2)nc2c(OC(F)F)cc(C(=O)O)cc21 [Compound 356, 2-((4-(4-((4-Chloro-2-fluorobenzyl)oxy)-5-fluoropyrimidin-2-yl)piperidin-1-yl)methyl)-4-(difluoromethoxy)-1-methyl-1H-benzo[d]imidazole-6-carboxylic acid] |
| < 10 | > 85 | C[C@H](F)Oc1cc(C(=O)O)cc2c1nc(CN1CCC(c3cccc(OCc4ccc(Cl)cc4F)n3)CC1)n2C (single isomer, unassigned) [Compound 360] |
| > 1000 | 50 to 85 | Cn1c(CN2CCC(c3cccc(OCc4ccc(C#N)cc4F)n3)CC2)nc2c(C(C)(C)O)cc(C(=O)O)cc21 [Compound 126, 2-((4-(6-((4-cyano-2-fluorobenzyl)oxy)pyridin-2-yl)piperidin-1-yl)methyl)-4-(2-hydroxypropan-2-yl)-1-methyl-1H-benzo[d]imidazole-6-carboxylic acid] |
| > 1000 | 25 to 50 | Cn1c(CN2CCC(c3cccc(OCc4ccc(Cl)cc4F)c3)CC2)nc2c(OC(F)F)cc(NCC(=O)O)cc21 [Compound 264, (2-((4-(3-((4-chloro-2-fluorobenzyl)oxy)phenyl)piperidin-1-yl)methyl)-4-(difluoromethoxy)-1-methyl-1H-benzo[d]imidazol-6-yl)glycine] |
| 100 to 1000 | > 85 | Cn1c(CN2CCC(c3cncc(OCc4ccc(Cl)cc4F)n3)CC2)nc2c(OC(F)F)cc(C(=O)O)cc21 [Compound 374, 2-((4-(6-((4-Chloro-2-fluorobenzyl)oxy)pyrazin-2-yl)piperidin-1-yl)methyl)-4-(difluoromethoxy)-1-methyl-1H-benzo[d]imidazole-6-carboxylic acid] |
| 10 to 100 | > 85 | CCOc1cc(-c2nc(=O)o[nH]2)cc2c1nc(CN1CCC(c3cccc(OCc4ccc(C#N)cc4F)n3)CC1)n2C [Compound 260, 4-(((6-(1-((4-ethoxy-1-methyl-6-(5-oxo-2,5-dihydro-1,2,4-oxadiazol-3-yl)-1H-benzo[d]imidazol-2-yl)methyl)piperidin-4-yl)pyridin-2-yl)oxy)methyl)-3-fluorobenzonitrile] |
| 10 to 100 | > 85 | Cn1c(CN2CCC(c3cccc(OCc4ccc(Cl)cc4F)n3)CC2)nc2c(C#N)cc(C(=O)O)cc21 [Compound 189, 2-((4-(6-((4-chloro-2-fluorobenzyl)oxy)pyridin-2-yl)piperidin-1-yl)methyl)-4-cyano-1-methyl-1H-benzo[d]imidazole-6-carboxylic acid] |
| 10 to 100 | > 85 | Cn1c(CN2CCC(c3cccc(OCc4ccc(Cl)cc4F)n3)CC2)nc2c(OC[C@@H]3CCO3)cc(C(=O)O)cc21 [Compound 211, (S)-2-((4-(6-((4-Chloro-2-fluorobenzyl)oxy)pyridin-2-yl)piperidin-1-yl)methyl)-1-methyl-4-(oxetan-2-ylmethoxy)-1H-benzo[d]imidazole-6-carboxylic acid] |
| 100 to 1000 | > 85 | COc1cc(C(=O)O)cc2c1nc(CN1CCC(c3cccc4c3OC[C@H](c3ccc(Cl)cc3F)O4)CC1)n2C [Compound 258, (S)-2-((4-(2-(4-Chloro-2-fluorophenyl)-2,3-dihydrobenzo[b][1,4]dioxin-5-yl)piperidin-1-yl)methyl)-4-methoxy-1-methyl-1H-benzo[d]imidazole-6-carboxylic acid] |
| < 10 | > 85 | CCOc1cc(C(=O)O)cc2c1nc(CN1CCC(c3cccc4c3O[C@@H](c3ccc(Cl)cc3F)CO4)CC1)n2C [Compound 266, (S)-2-((4-(3-(4-chloro-2-fluorophenyl)-2,3-dihydrobenzo[b][1,4]dioxin-5-yl)piperidin-1-yl)methyl)-4-ethoxy-1-methyl-1H-benzo[d]imidazole-6-carboxylic acid] |
| 100 to 1000 | > 85 | Cn1c(CN2CCC(c3cccc(OCc4ccc(C#N)cc4F)n3)CC2)nc2c(OC(C)(C)CF)cc(C(=O)O)cc21 [Compound 160, 2-((4-(6-((4-Cyano-2-fluorobenzyl)oxy)pyridin-2-yl)piperidin-1-yl)methyl)-4-((1-fluoro-2-methylpropan-2-yl)oxy)-1-methyl-1H-benzo[d]imidazole-6-carboxylic acid] |

The next lines start with the compound.

| SMILES | EC50 [nM] | Emax [%] |
| --- | --- | --- |
| Cn1c(CN2CCC(c3cccc4c3O[C@H](c3ccc(Cl)cc3F)CO4)CC2)nc2c(OCCF)cc(C(=O)O)cc21 [Compound 333, (R)-2-((4-(3-(4-chloro-2-fluorophenyl)-2,3-dihydrobenzo[b][1,4]dioxin-5-yl)piperidin-1-yl)methyl)-4-(2-fluoroethoxy)-1-methyl-1H-benzo[d]imidazole-6-carboxylic acid] | 100 to 1000 | > 85 |
| CCOc1cc(C(=O)O)cc2c1nc(CN1CCC(c3cccc4c3O[C@H](c3ccc(C#N)cc3F)CO4)CC1)n2C [Compound 288, (R)-2-((4-(3-(4-Cyano-2-fluorophenyl)-2,3-dihydrobenzo[b][1,4]dioxin-5-yl)piperidin-1-yl)methyl)-4-ethoxy-1-methyl-1H-benzo[d]imidazole-6-carboxylic acid] | 10 to 100 | > 85 |
| Cn1c(CN2CCC(c3cccc(OCc4ccc(Cl)cc4F)n3)CC2)nc2c(OC(F)F)cc(C(=O)O)nc21 [Compound 328, 2-((4-(6-((4-Chloro-2-fluorobenzyl)oxy)pyridin-2-yl)piperidin-1-yl)methyl)-7-(difluoromethoxy)-3-methyl-3H-imidazo[4,5-b]pyridine-5-carboxylic acid] | 10 to 100 | > 85 |
| C[C@]1(c2ccc(Cl)cn2)Oc2cccc(C3CCN(Cc4nc5c(O)cc(C(=O)O)cc5n4C[C@@H]4CCO4)CC3)c2O1 [Compound 92, 2-((4-((S)-2-(5-Chloropyridin-2-yl)-2-methylbenzo[d][1,3]dioxol-4-yl)piperidin-1-yl)methyl)-4-hydroxy-1-(((S)-oxetan-2-yl)methyl)-1H-benzo[d]imidazole-6-carboxylic acid] | < 10 | > 85 |
| Cn1c(CN2CCC(c3cccc4c3O[C@@H](c3ccc(Cl)cc3F)CO4)CC2)nc2c(OC(F)F)cc(C(=O)O)cc21 [Compound 334, (S)-2-((4-(3-(4-Chloro-2-fluorophenyl)-2,3-dihydrobenzo[b][1,4]dioxin-5-yl)piperidin-1-yl)methyl)-4-(difluoromethoxy)-1-methyl-1H-benzo[d]imidazole-6-carboxylic acid] | 10 to 100 | > 85 |
| COc1cc(C(=O)O)cc2c1nc(CN1CCC(c3cccc(OCc4cc(F)c(C#N)cc4F)n3)CC1)n2C [Compound 327, 2-((4-(6-((4-Cyano-2,5-difluorobenzyl)oxy)pyridin-2-yl)piperidin-1-yl)methyl)-4-methoxy-1-methyl-1H-benzo[d]imidazole-6-carboxylic acid] | < 10 | > 85 |
| Cn1c(CN2CCC(c3cccc(OCc4cnc(C#N)cc4F)n3)CC2)nc2c(OC(F)F)cc(C(=O)O)cc21 [Compound 350, 2-((4-(6-((6-Cyano-4-fluoropyridin-3-yl)methoxy)pyridin-2-yl)piperidin-1-yl)methyl)-4-(difluoromethoxy)-1-methyl-1H-benzo[d]imidazole-6-carboxylic acid] | 100 to 1000 | > 85 |
| COc1cc(C(=O)O)cc2c1nc(CN1CCN(c3cccc(OCc4ccc(Cl)cc4F)n3)CC1)n2C [Compound 383, 2-((4-(6-((4-Chloro-2-fluorobenzyl)oxy)pyridin-2-yl)piperazin-1-yl)methyl)-4-methoxy-1-methyl-1H-benzo[d]imidazole-6-carboxylic acid] | 10 to 100 | > 85 |
| Cc1ccc(COc2cccc(C3CCN(Cc4nc5c(OC(F)F)cc(C(=O)O)cc5n4C)CC3)n2)c(F)c1 [Compound 238, 4-(Difluoromethoxy)-2-((4-(6-((2-fluoro-4-methylbenzyl)oxy)pyridin-2-yl)piperidin-1-yl)methyl)-1-methyl-1H-benzo[d]imidazole-6-carboxylic acid] | 10 to 100 | > 85 |
| Cn1c(CN2CCC(c3cccc(OCc4ccc(C#N)cc4F)n3)CC2)nc2c(N3CCOCC3)cc(C(=O)O)cc21 [Compound 112, 2-((4-(6-((4-cyano-2-fluorobenzyl)oxy)pyridin-2-yl)piperidin-1-yl)methyl)-1-methyl-4-morpholino-1H-benzo[d]imidazole-6-carboxylic acid] | 100 to 1000 | > 85 |
| COCC(F)(F)Oc1cc(C(=O)O)cc2c1nc(CN1CCC(c3cccc(OCc4ccc(Cl)cc4F)n3)CC1)n2C [Compound 227, 2-((4-(6-((4-Chloro-2-fluorobenzyl)oxy)pyridin-2-yl)piperidin-1-yl)methyl)-4-(1,1-difluoro-2-methoxyethoxy)-1-methyl-1H-benzo[d]imidazole-6-carboxylic acid] | < 10 | > 85 |
